Earlier results, collected in patent publication US4296101A, “Antibiotic kristenin” (E. R. Squibb & Sons, Inc., priority 1978, dated 1981).

System: gram positive bacteria
Details: stated by Okazaki et al., Journal of Antibiotics, Vol. 28, No. 9, pages 717-719

Structure (SMILES): CCC(N)C(O)C(O)C(C)C(=O)NC(CC(C)C)C1Cc2cccc(O)c2C(=O)O1 (stereo not shown) [baciphelacin]
- active against gram positive bacteria: active against gram positive bacteria
